Assay results taken from article PMC10331583, “Control of fibrosis with enhanced safety via asymmetric inhibition of prolyl‐tRNA synthetase 1” (EMBO Molecular Medicine, 2023).
Where “and” joins values, the source holds several entries; their conditions need not be identical. Equal values may be shown once. Read-outs that look alike come from different tables or passages of the source.

Key:
WI‐26 VA4 cells [1] = assay: CellTiter‐Glo assay (cytotoxicity); conditions: for activity at 0.0001 µM / activity at 0.0003 µM / activity at 0.001 µM / activity at 0.003 µM / activity at 0.01 µM / activity at 0.03 µM / activity at 0.1 µM / activity at 0.3 µM / activity at 1 µM / activity at 3 µM / activity at 10 µM / activity at 30 µM / activity at 100 µM: Homo sapiens
[2] = CellTiter‐Glo assay (cytotoxicity); conditions: human, WI-26 VA4 cells
WI‐26 VA4 cells [3] = assay: Collagen ELISA (secreted pro‐collagen I)

**Q.** Which activity at 0.0001 µM (WI‐26 VA4 cells [1]; WI26VA4, read-out: CellTiter-Glo % of control, 0.1 nM, Experiment #1, replicates) does the source give for `O=C(C[C@H]1NCCC[C@@H]1O)Cn1cnc2ccc(-c3cccc(F)c3)cc21` [DWN11251] here?
**A.** 92.7%

**Q.** What about the activity at 0.0001 µM (WI‐26 VA4 cells [1]; WI26VA4, read-out: CellTiter-Glo % of control, 0.1 nM, Experiment #2, replicates) of the same compound?
**A.** 120%

**Q.** And the activity at 0.0003 µM (WI‐26 VA4 cells [1]; WI26VA4, read-out: CellTiter-Glo % of control, 0.3 nM, Experiment #1, replicates)?
**A.** 111%

**Q.** And the activity at 0.0003 µM (WI‐26 VA4 cells [1]; WI26VA4, read-out: CellTiter-Glo % of control, 0.3 nM, Experiment #2, replicates)?
**A.** 121%

**Q.** And the activity at 0.001 µM (WI‐26 VA4 cells [1]; WI26VA4, read-out: CellTiter-Glo % of control, 1 nM, Experiment #1, replicates)?
**A.** 105%

**Q.** What about the activity at 0.001 µM (WI‐26 VA4 cells [1]; WI26VA4, read-out: CellTiter-Glo % of control, 1 nM, Experiment #2, replicates) of the same compound?
**A.** 107%

**Q.** And the activity at 0.003 µM (WI‐26 VA4 cells [1]; WI26VA4, read-out: CellTiter-Glo % of control, 3 nM, Experiment #1, replicates)?
**A.** 122%

**Q.** And the activity at 0.003 µM (WI‐26 VA4 cells [1]; WI26VA4, read-out: CellTiter-Glo % of control, 3 nM, Experiment #2, replicates)?
**A.** 111%

**Q.** And the activity at 0.01 µM (WI‐26 VA4 cells [1]; WI26VA4, read-out: CellTiter-Glo % of control, 10 nM, Experiment #1, replicates)?
**A.** 100%

**Q.** What about the activity at 0.01 µM (WI‐26 VA4 cells [1]; WI26VA4, read-out: CellTiter-Glo % of control, 10 nM, Experiment #2, replicates) of the same compound?
**A.** 121%

**Q.** And the activity at 0.03 µM (WI‐26 VA4 cells [1]; WI26VA4, read-out: CellTiter-Glo % of control, 30 nM, Experiment #1, replicates)?
**A.** 108%

**Q.** What about the activity at 0.03 µM (WI‐26 VA4 cells [1]; WI26VA4, read-out: CellTiter-Glo % of control, 30 nM, Experiment #2, replicates) of the same compound?
**A.** 124%

**Q.** And the activity at 0.1 µM (WI‐26 VA4 cells [1]; WI26VA4, read-out: CellTiter-Glo % of control, 100 nM, Experiment #1, replicates)?
**A.** 112%

**Q.** What about the activity at 0.1 µM (WI‐26 VA4 cells [1]; WI26VA4, read-out: CellTiter-Glo % of control, 100 nM, Experiment #2, replicates) of the same compound?
**A.** 126%

**Q.** What about the activity at 0.3 µM (WI‐26 VA4 cells [1]; WI26VA4, read-out: CellTiter-Glo % of control, 300 nM, Experiment #1, replicates) of the same compound?
**A.** 98.2%

**Q.** What about the activity at 0.3 µM (WI‐26 VA4 cells [1]; WI26VA4, read-out: CellTiter-Glo % of control, 300 nM, Experiment #2, replicates) of the same compound?
**A.** 105%

**Q.** And the activity at 1 µM (WI‐26 VA4 cells [1]; WI26VA4, read-out: CellTiter-Glo % of control, 1000 nM, Experiment #1, replicates)?
**A.** 73.2%

**Q.** And the activity at 1 µM (WI‐26 VA4 cells [1]; WI26VA4, read-out: CellTiter-Glo % of control, 1000 nM, Experiment #2, replicates)?
**A.** 76.4%

**Q.** And the activity at 3 µM (WI‐26 VA4 cells [1]; WI26VA4, read-out: CellTiter-Glo % of control, 3000 nM, Experiment #1, replicates)?
**A.** 36.1%

**Q.** What about the activity at 3 µM (WI‐26 VA4 cells [1]; WI26VA4, read-out: CellTiter-Glo % of control, 3000 nM, Experiment #2, replicates) of the same compound?
**A.** 46.1%

**Q.** What about the activity at 10 µM (WI‐26 VA4 cells [1]; WI26VA4, read-out: CellTiter-Glo % of control, 10000 nM, Experiment #1, replicates) of the same compound?
**A.** 26.6%

**Q.** What about the activity at 10 µM (WI‐26 VA4 cells [1]; WI26VA4, read-out: CellTiter-Glo % of control, 10000 nM, Experiment #2, replicates) of the same compound?
**A.** 30%

**Q.** And the activity at 30 µM (WI‐26 VA4 cells [1]; WI26VA4, read-out: CellTiter-Glo % of control, 30000 nM, Experiment #1, replicates)?
**A.** 12.4%

**Q.** And the activity at 30 µM (WI‐26 VA4 cells [1]; WI26VA4, read-out: CellTiter-Glo % of control, 30000 nM, Experiment #2, replicates)?
**A.** 11.9%

**Q.** And the activity at 100 µM (WI‐26 VA4 cells [1]; WI26VA4, read-out: CellTiter-Glo % of control, 100000 nM, Experiment #1, replicates)?
**A.** 1.59%

**Q.** What about the activity at 100 µM (WI‐26 VA4 cells [1]; WI26VA4, read-out: CellTiter-Glo % of control, 100000 nM, Experiment #2, replicates) of the same compound?
**A.** 0.95%

**Q.** And the activity at 0.0001 µM (WI‐26 VA4 cells [1]; WI26VA4, read-out: CellTiter-Glo % of control, average, 0.1 nM, average)?
**A.** 110%

**Q.** What about the activity at 0.0003 µM (WI‐26 VA4 cells [1]; WI26VA4, read-out: CellTiter-Glo % of control, average, 0.3 nM, average) of the same compound?
**A.** 116%

**Q.** What about the activity at 0.001 µM (WI‐26 VA4 cells [1]; WI26VA4, read-out: CellTiter-Glo % of control, average, 1 nM, average) of the same compound?
**A.** 108%

**Q.** What about the activity at 0.003 µM (WI‐26 VA4 cells [1]; WI26VA4, read-out: CellTiter-Glo % of control, average, 3 nM, average) of the same compound?
**A.** 112%

**Q.** What about the activity at 0.01 µM (WI‐26 VA4 cells [1]; WI26VA4, read-out: CellTiter-Glo % of control, average, 10 nM, average) of the same compound?
**A.** 113%

**Q.** What about the activity at 0.03 µM (WI‐26 VA4 cells [1]; WI26VA4, read-out: CellTiter-Glo % of control, average, 30 nM, average) of the same compound?
**A.** 119%

**Q.** And the activity at 0.1 µM (WI‐26 VA4 cells [1]; WI26VA4, read-out: CellTiter-Glo % of control, average, 100 nM, average)?
**A.** 119%

**Q.** And the activity at 0.3 µM (WI‐26 VA4 cells [1]; WI26VA4, read-out: CellTiter-Glo % of control, average, 300 nM, average)?
**A.** 101%

**Q.** What about the activity at 1 µM (WI‐26 VA4 cells [1]; WI26VA4, read-out: CellTiter-Glo % of control, average, 1000 nM, average) of the same compound?
**A.** 76.7%

**Q.** And the activity at 3 µM (WI‐26 VA4 cells [1]; WI26VA4, read-out: CellTiter-Glo % of control, average, 3000 nM, average)?
**A.** 41.3%

**Q.** And the activity at 10 µM (WI‐26 VA4 cells [1]; WI26VA4, read-out: CellTiter-Glo % of control, average, 10000 nM, average)?
**A.** 29%

**Q.** And the activity at 30 µM (WI‐26 VA4 cells [1]; WI26VA4, read-out: CellTiter-Glo % of control, average, 30000 nM, average)?
**A.** 14.4%

**Q.** And the activity at 100 µM (WI‐26 VA4 cells [1]; WI26VA4, read-out: CellTiter-Glo % of control, average, 100000 nM, average)?
**A.** 1.22%

**Q.** And the “CellTiter-Glo LogIC50 (best-fit value)” value (WI‐26 VA4 cells [1]; log(inhibitor) vs. response, variable slope (four parameters), concentration in nM)?
**A.** 3.259

**Q.** And the CC50 at 72 h [2]?
**A.** 1820 nM

**Q.** What about the “Collagen, % of control (single replicates per experiment)” value (WI‐26 VA4 cells [3]; 10 nM, 0.01 µM) of the same compound?
**A.** 112.57 % of control and 103.72 % of control and 109.80 % of control and 111.67 % of control and 110.64 % of control

**Q.** And the “Collagen, % of control (single replicates per experiment)” value (WI‐26 VA4 cells [3]; 100 nM, 0.1 µM)?
**A.** 84.02 % of control and 93.58 % of control and 96.09 % of control and 96.94 % of control and 92.86 % of control

**Q.** And the “Collagen, % of control (single replicates per experiment)” value (WI‐26 VA4 cells [3]; 300 nM, 0.3 µM)?
**A.** 47.78 % of control and 47.63 % of control and 53.20 % of control and 53.43 % of control and 55.58 % of control

**Q.** And the “Collagen, % of control (single replicates per experiment)” value (WI‐26 VA4 cells [3]; 1000 nM, 1 µM)?
**A.** 11.57 % of control and 11.31 % of control and 12.08 % of control and 14.51 % of control and 14.77 % of control

**Q.** What about the “Collagen, % of control (single replicates per experiment)” value (WI‐26 VA4 cells [3]; 3000 nM, 3 µM) of the same compound?
**A.** 3.47 % of control and 2.67 % of control and 3.07 % of control and 3.55 % of control and 4.03 % of control

**Q.** And the “Collagen, % of control (single replicates per experiment)” value (WI‐26 VA4 cells [3]; 10000 nM, 10 µM)?
**A.** 2.75 % of control and 2.12 % of control and 2.44 % of control and 2.49 % of control and 2.64 % of control

**Q.** And the “Collagen, % of control (single replicates per experiment)” value (WI‐26 VA4 cells [3]; 30000 nM, 30 µM)?
**A.** 3.52 % of control

**Q.** What about the “CC50/collagen IC50” value (WI‐26 VA4 cells [3]; Fig 5E) of the same compound?
**A.** 7.08

**Q.** What about the IC50 (WI‐26 VA4 cells [3]; Homo sapiens, WI26VA4, read-out: Collagen IC50 (best-fit value), log(inhibitor) vs. response, variable slope (four parameters) (converted)) of the same compound?
**A.** 257 nM

**Q.** And the activity at 0.01 µM (WI‐26 VA4 cells [3]; Homo sapiens, WI26VA4, read-out: Collagen, % of control (single replicates per experiment), 10 nM)?
**A.** 112%

**Q.** What about the activity at 0.03 µM (WI‐26 VA4 cells [3]; Homo sapiens, WI26VA4, read-out: Collagen, % of control (single replicates per experiment), 30 nM) of the same compound?
**A.** 109%

**Q.** And the activity at 0.1 µM (WI‐26 VA4 cells [3]; Homo sapiens, WI26VA4, read-out: Collagen, % of control (single replicates per experiment), 100 nM)?
**A.** 81.3%

**Q.** What about the activity at 0.3 µM (WI‐26 VA4 cells [3]; Homo sapiens, WI26VA4, read-out: Collagen, % of control (single replicates per experiment), 300 nM) of the same compound?
**A.** 42.9%

**Q.** And the activity at 1 µM (WI‐26 VA4 cells [3]; Homo sapiens, WI26VA4, read-out: Collagen, % of control (single replicates per experiment), 1000 nM)?
**A.** 10.2%

**Q.** And the activity at 3 µM (WI‐26 VA4 cells [3]; Homo sapiens, WI26VA4, read-out: Collagen, % of control (single replicates per experiment), 3000 nM)?
**A.** 2.81%

**Q.** What about the activity at 10 µM (WI‐26 VA4 cells [3]; Homo sapiens, WI26VA4, read-out: Collagen, % of control (single replicates per experiment), 10000 nM) of the same compound?
**A.** 2.31%

**Q.** What about the activity at 30 µM (WI‐26 VA4 cells [3]; Homo sapiens, WI26VA4, read-out: Collagen, % of control (single replicates per experiment), 30000 nM) of the same compound?
**A.** 2.54%

**Q.** And the activity at 0.01 µM (WI‐26 VA4 cells [3]; Homo sapiens, WI26VA4, read-out: Collagen, % of control, average, 10 nM, average)?
**A.** 110%
